Laboratory results published in US20260266805A1, “METHOD AND COMPOSITIONS FOR ANALYZING TOXICITY IN ORGANISMS” (priority 2023, published 2026).
pEC50: −log10 of the molar value. Where “and” joins values, the source holds several entries; their conditions need not be identical. Identical values can stand only once. Like-named read-outs stand apart in the source and are kept apart here.

Key:
[1] = tested on: Fathead minnow; settings: cited from earlier work
[2] = tested on: Daphnia; settings: cited from earlier work
[3] = tested on: C. elegans N2 wild type; experiment: vivoChip-24x C. elegans DART assay (72 hr liquid culture from L1, 4D imaging of D1 adults); assay type: in vivo
Description: (§1) Strains and maintenance: The study used the N2 wild type (The Caenorhabditis Natural Diversity Resource, CaeNDR) for all experiments except for the initial vivoChip-2× pilot study, where the study used N2 wild types from the Caenorhabditis Genetics Center (CGC). C. elegans were maintained using the standard methods on nematode growth media (NGM) plates seeded with HB101 Escherichia coli bacteria and maintained at 20° C.. Frozen stocks of strains were also maintained at −80° C. and thawed each year to generate a new set of Dauer plates. Sealed Dauer plates for each strain were stored at 16° C. and used to start a fresh maintenance culture every 3 months by chunking to avoid genetic drift. Worms were cultured for >5 generations before using them for assays in a temperature and humidity-controlled environment.
Food preparation: HB101 was streaked on a Luria-Bertani (LB) agar plate with streptomycin (antibiotic) and incubated overnight at 37° C. to generate single colonies. One colony was picked and used to inoculate an overnight 5 mL starter culture in LB broth and antibiotic. 200 μl of this starter culture was added to 200 mL LB broth/streptomycin in a 1000 mL baffled flask and incubated for 18 h with 180 rotations per min (rpm) shaking to reach the end of the log growth phase. OD600 was measured using an Implen DiluPhotometer, and the culture was stored at 4° C. Immediately before worm culture, a sufficient volume of the bacterial culture was centrifuged to generate the required volume of OD600^=3.0 food suspension. The LB supernatant was removed and the pellet was resuspended in S media. This density was optimal for growing 80-100 larval 1 (L1) to the day 1 (D1) adult stage in a 500 μl culture volume with food remaining after 72 hrs, but not so much residual food particles as to interfere with imaging or chip operation.
Chemicals: Methylmercury (II) hydroxide (CH3Hg, Alfa Aesar, CAS #1184-57-2) and 5-Fluoro-2′-deoxyuridinc (FUdR, TCI Chemical, CAS #50-91-9) were dissolved in ultrapure water as master stocks at 200× highest treatment concentration. Propiconazole (Sigma Aldrich, CAS #60207-90-1) was dissolved in dimethylsulfoxide (Sigma Aldrich, CAS #67-68-5) as master stocks at 500× highest treatment concentration. The master stocks were transferred into 0.2 ml tubes as single-use aliquots and kept at −80° C. until needed. The 1 μM dose of CH3Hg was prepared by diluting the stock in ultrapure water prior to the treatment. For the dose-response assays, propiconazole was diluted immediately prior to treatment by serial dilution in DMSO to 500× working dilutions as needed, so that the final DMSO concentration in each well would be 0.2%. DMSO was also added to both the solvent control wells and the CH3Hg control wells to 0.2%.
(§2) Worm synchronization and large-scale culture: To prepare large numbers of synchronized L1 stage larvae, P0 larval 4 (L4) worms were transferred to NGM plates and grown for 96 hrs till the F1 generation reached maturity, removing the P0 adults after 48 hrs. D1 animals were treated with an alkaline sodium hypochlorite solution with periods of slow and high-speed shaking on a speed-controllable vortex to fragment their bodies and release the embryos before the bleaching solution was neutralized with 5 washes of M9. The eggs were allowed to develop and hatch in the M9 buffer in a rotating glass conical tube for 24 hrs. Hatched synchronized L1s were filtered through a 20 μm cell filter to remove unhatched eggs and debris, counted the number of total larvae, and adjusted the volume to make a final suspension of L1 larvae at a density of ~100 L1s/20 μl.
(§3) Chemical treatment in liquid culture: The age-synchronized L1 suspension (~100 larvae in 20 μl volumes) was placed in a standard 24-well plate with 480 μl HB101 (OD600^=3.0) suspension in S media. 2.5 μl of chemicals dissolved in H2O, or 1 μL of the chemicals in DMSO were added to the designated wells, keeping solvent concentration constant across all wells. […]

[4] = tested on: C. elegans pharynx; experiment: Pharynx size analysis from bright field images in vivoChip; assay type: in vivo; settings: D1 adults, 1.6 μM, DMSO (0.25%), treated from L1 stage
Excerpt: FIGS. 25A-25C depict identifying C. elegans organs and organ structures using high-resolution, bright field, and fluorescence images using the vivoChip platform. […] The schematic represents different organs that could be identified and analyzed using image processing or automated machine learning algorithms.
Identifying internal organs and organ structures of C. elegans using bright field and fluorescence images: Overall morphology of changes in different tissues within a C. elegans body. Due to the dynamic nature of the tissue architectures, it is expected to change over the animal's age. This approach was used to track tissue architecture during early adult stage C. elegans quantitatively (FIG. 25A). As an example, the study analyzed the pharynx within the C. elegans immobilized inside the vivoChip. […] This well-studied organ has been used to screen several therapeutic drugs and to characterize the amount of food intake readouts. […]
C. elegans pharynxes present in the best focal plane from individual channels were manually segmented. […] Once the C. elegans body is detected, specific organs can be characterized using the fluorescence reporter (transgenic strains) or fluorescent dyes (feeding or soaking with dye). For example, C. elegans were fed with FITC-dextran overnight to visualize the green signal using fluorescence imaging of device-immobilized animals. […]

[5] = tested on: C. elegans; experiment: Nile red (NR) staining of stored body lipids in vivoChip; assay type: in vivo; settings: co-cultured for the entire 72 hours, versus control worms
Description: Liquid culture of C. elegans: Worms are synchronized by bleaching a population of gravid C. elegans using the hypochlorite solution. The embryos are then incubated in a glass tube and rotated for 24 hours at 20° C. About 80 larval 1 (L1) worms are plated into a standard 24-well plastic plate with 500 μl S media and HB101 bacteria. The worms are exposed to chemicals or ingredients during the growth in the liquid media for 3 days in a 20° C. incubator.
Imaging of C. elegans using vivoChip: The C. elegans are fed with bacteria and treated with test chemicals for 72 hours in a 20° C. incubator. […] The vivoChip technology allows capture of bright field or fluorescence images from the worms immobilized inside the microfluidic channels.
Nile red (NR) staining to study body lipids: To stain lipid molecules in the C. elegans body, 30 ng/ml and 50 ng/mL were added to the liquid culture at the L1 stage (a total of 72-hour incubation) and L4 stage animals (a total of 24-hour incubation) and maintained the plate at 20° C. […] Bright-field and fluorescence (red filter set) were acquired to capture worm development and the stored lipids in the C. elegans populations.
Analysis of NR signal: The individual channels were analyzed to identify the NR signal, mainly within the worm intestinal […] (FIG. 23A). […]

[6] = tested on: wild-type N2 worms; experiment: Pilot DART imaging of N2 worms treated with FUdR in a small-scale vivoChip; assay type: in vivo, C. elegans; settings: for pEC50: Caenorhabditis elegans, N2 L1 larvae, 0-10,000 μM, 72 hrs at 20° C., D1 adults
Description: as §1, §2
as §3, with “wells. Vehicle control wells received the same volume of each solvent (H2O or 0.2% DMSO).” for “wells.”
For the initial testing of this hypothesis, this study explored the response of wild-type N2 worms when treated various doses of 5-Fluoro-2′-deoxyuridine (FUdR), a drug commonly used to prevent the development of live offspring in C. elegans experimental cultures. […] The length of all worms in each concentration were manually measured by taking the distance from the head to the tail of each animal. The study counted the total number of embryos and the number of embryos visibly moving within the eggshells in each worm through the time stacks (FIGS. 1C-1E).

[7] = tested on: CL2166 strain; settings: CL2166, 5.66 μl of 3% H2O2 in 500 μl culture at 68 hours, 4 hours exposure
Description: Image analysis of the C. elegans body and fluorescence signal: The images from the vivoChip platform were cropped into individual channels. The study determined the best focal plane for each worm image (bright-field images) from the stack of images. Individual channel image was analyzed using machine-learning algorithms (developed by vivoVerse) to predict the mask for the worm body inside the individual microfluidic channel. Since several organs in the worm body have a 3D architecture, the study created a maximum-intensity projection of multiple z-slice fluorescence images. Using the maximum projection image, the study then calculated the integrated fluorescence signal within the predicted body mask. The study also estimated the background signal from the pixels outside the body mask and within two successive channel regions. The background signal was used to estimate the corrected total C. elegans fluorescence (CTCF)=integrated density−(area of selected C. elegans body×fluorescence of background readings)
The study treated a transgenic strain expressing GFP when exposed to oxidative stress to quantify the stress level in individual worms using high-resolution imaging to quantify sub-lethal changes in the stress levels.
5.66 μl of 3% H2O2 was added to the 500 μl S media culture with worms at 68 hours to induce oxidative stress. […]

## CCCC1COC(Cn2cncn2)(c2ccc(Cl)cc2Cl)O1 (stereo not drawn) [propiconazole]
[1]
  concentration from which fecundity was affected: ≥ 0.5 mg/L and ≥ 1.46 μM
[2]
  concentration from which embryonic development was affected: ≥ 0.5 mg/L and ≥ 1.46 μM
[3]; N2, 72 hrs
  concentration at which reduced growth rate left worms too small to be immobilized in the microfluidic channels: ≥ 333 UM
[3]; N2, L1 to D1, 72 hrs, Hill fit
  body length EC10: 117.5 µM
  body volume EC10: 74.9 µM
  developed (moving+folded) embryos EC10: 10.9 µM
  moving embryos EC10: 10 µM
  total embryos EC10: 48.8 µM

## CCOP(=S)(OCC)Oc1nc(Cl)c(Cl)cc1Cl [chlorpyrifos]
[4]
  total pixels of pharynx compared to vehicle control (DMSO): reduced

## NCCc1c[nH]c2ccc(O)cc12 [5-HT, serotonin]
[5]
  amount of lipids in the body visualized using NR staining: significantly lower amount of lipids

## O=c1[nH]c(=O)n([C@H]2C[C@H](O)[C@@H](CO)O2)cc1F [FUdR, 5-Fluoro-2′-deoxyuridine]
[6]; read-out: moving embryo parameter, EC50
  pEC50: 4.59
[6]; read-out: reduction in body length, EC50
  pEC50: 3.50
[6]; read-out: reduction in the number of total embryos, EC50
  pEC50: 4.01
[6]; N2 C. elegans, 0-10000 μM
  concentration causing growth arrest at stages earlier than could be immobilized in the chip: ≥ 500 µM

## OO [H2O2, hydrogen peroxide]
[7]
  increase of GFP intensity: ~ 60%
